Q: Which melting point does the source give for `CC(=O)c1cc(C)cc(C)c1NC(=O)c1sccc1S(=O)(=O)Nc1onc(C)c1C` [N-(2-acetyl-4,6-dimethylphenyl)-3-{[(3,4 dimethyl-5-isoxazolyl)amino]sulfonyl}-2-thiophenecarboxamide] here?
A: The melting point was 158 to 160 °C.

Reference: patent US20080317858A1, “FORMULATIONS OF N-(2-ACETYL-4,6-DIMETHYLPHENYL)-3--2-THIOPHENECARBOXAMIDE” (priority 2007, published 2008)
